Paper PMC7558026, “Exploring and applying the substrate promiscuity of a C-glycosyltransferase in the chemo-enzymatic synthesis of bioactive C-glycosides” (Nature Communications, 2020)

Columns and labels:
Format in all cases: biochemical, Aloe barbadensis
AbCGT [1] = biological target: T1, AbCGT (Aloe vera, UniProt A0A7G9P699); experiment: Glycosyltransferase activity assay, purified AbCGT (wild type) with aglycon acceptors and UDP-Glc; conditions: aglycon acceptor with UDP-Glc, pH 7.4, 30 °C, up to 12 h; Reaction-1 to -3
AbCGT [2] = biological target: T1, AbCGT; experiment: Kinetic parameters of AbCGT (wild type); conditions: acceptor varied, saturating UDP-Glc, pH 7.4, 30 °C
Method: The reactions terminated by the addition of 200 μL of ice-cold methanol. Subsequently, samples were centrifuged at 15,000 × g for 30 min to collect the supernatant, and aliquots were analyzed by HPLC as described above. All experiments were performed in triplicate. The value of Km was calculated with the method of Lineweaver–Burk plot.

AbCGT [3] = experiment: Effects of pH, temperature and divalent metal ions on AbCGT activity (phloretin 17 + UDP-Glc)
Method: To assay for the optimal reaction temperature, the reaction mixtures were incubated at pH 11.0 and different temperatures (15–60 °C). To test the necessity of divalent metal ions for AbCGT, BaCl2, CaCl2, CoCl2, CuCl2, FeCl2, MgCl2, MnCl2, ZnCl2, and EDTA were used individually at a final concentration of 5 mM. […] For quantification, three parallel assays were routinely carried out.

AbCGT [4] = experiment: as above; remark: listed apart in the source
[5] = pH 5.0, citric acid-sodium citrate buffer, reaction-1
[6] = pH 5.0, citric acid-sodium citrate buffer, reaction-2
[7] = pH 5.0, citric acid-sodium citrate buffer, reaction-3
[8] = pH 6.0, Na2HPO4-NaH2PO4 buffer, reaction-1
[9] = pH 6.0, Na2HPO4-NaH2PO4 buffer, reaction-2
[10] = pH 6.0, Na2HPO4-NaH2PO4 buffer, reaction-3
[11] = pH 6.0, citric acid-sodium citrate buffer, reaction-1
[12] = pH 6.0, citric acid-sodium citrate buffer, reaction-2
[13] = pH 6.0, citric acid-sodium citrate buffer, reaction-3
[14] = pH 7.0, Na2HPO4-NaH2PO4 buffer, reaction-1
[15] = pH 7.0, Na2HPO4-NaH2PO4 buffer, reaction-2
[16] = pH 7.0, Na2HPO4-NaH2PO4 buffer, reaction-3
[17] = pH 7.0, Tris-HCl buffer, reaction-1
[18] = pH 7.0, Tris-HCl buffer, reaction-2
[19] = pH 7.0, Tris-HCl buffer, reaction-3
[20] = pH 8.0, Tris-HCl buffer, reaction-1
[21] = pH 8.0, Tris-HCl buffer, reaction-2
[22] = pH 8.0, Tris-HCl buffer, reaction-3
[23] = pH 9.0, Na2CO3-NaHCO3 buffer, reaction-1
[24] = pH 9.0, Na2CO3-NaHCO3 buffer, reaction-2
[25] = pH 9.0, Na2CO3-NaHCO3 buffer, reaction-3
[26] = pH 9.0, Tris-HCl buffer, reaction-1
[27] = pH 9.0, Tris-HCl buffer, reaction-2
[28] = pH 9.0, Tris-HCl buffer, reaction-3
[29] = pH 10.0, Na2CO3-NaHCO3 buffer, reaction-1
[30] = pH 10.0, Na2CO3-NaHCO3 buffer, reaction-2
[31] = pH 10.0, Na2CO3-NaHCO3 buffer, reaction-3
[32] = pH 11.0, Na2CO3-NaHCO3 buffer, reaction-1
[33] = pH 11.0, Na2CO3-NaHCO3 buffer, reaction-2
[34] = pH 11.0, Na2CO3-NaHCO3 buffer, reaction-3
[35] = pH 12.0, Na2CO3-NaHCO3 buffer, reaction-1
[36] = pH 12.0, Na2CO3-NaHCO3 buffer, reaction-2
[37] = pH 12.0, Na2CO3-NaHCO3 buffer, reaction-3

T1 sequence (A0A7G9P699 entry or part of it): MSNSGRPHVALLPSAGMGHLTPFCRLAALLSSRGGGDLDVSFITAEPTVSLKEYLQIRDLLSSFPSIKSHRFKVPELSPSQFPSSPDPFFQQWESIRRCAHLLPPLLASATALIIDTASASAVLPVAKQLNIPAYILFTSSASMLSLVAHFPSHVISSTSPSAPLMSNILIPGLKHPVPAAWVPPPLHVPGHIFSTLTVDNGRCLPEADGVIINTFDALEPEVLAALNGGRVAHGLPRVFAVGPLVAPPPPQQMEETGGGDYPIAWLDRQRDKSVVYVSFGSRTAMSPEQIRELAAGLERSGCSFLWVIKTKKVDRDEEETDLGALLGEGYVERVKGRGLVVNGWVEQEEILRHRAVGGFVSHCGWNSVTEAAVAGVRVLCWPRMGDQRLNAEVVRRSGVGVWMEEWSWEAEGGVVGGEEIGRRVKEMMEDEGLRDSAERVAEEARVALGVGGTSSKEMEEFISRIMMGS

conversion rates, O,N,S-glycosylation (AbCGT [1]): 0% | conversion rates, di-C-glycosylation (AbCGT [1]): 100% | conversion rates, mono-C-glycosylation (AbCGT [1]): 0% | Kcat (AbCGT [2]): 2 s⁻¹
Compound: O=C(CCc1ccc(O)cc1)c1c(O)cc(O)cc1O [Compound 17, phloretin]
conversion rates of Phloretin (AbCGT [3]; Temperature 15, reaction-1): 11 | relative activity (AbCGT [3]; Temperature 15, reaction-1): 11.0 | conversion rates of Phloretin (AbCGT [3]; Temperature 15, reaction-2): 10.9 | relative activity (AbCGT [3]; Temperature 15, reaction-2): 10.9 | conversion rates of Phloretin (AbCGT [3]; Temperature 15, reaction-3): 12.9 | relative activity (AbCGT [3]; Temperature 15, reaction-3): 12.9 | conversion rates of Phloretin (AbCGT [3]; Temperature 25, reaction-1): 18.8 | relative activity (AbCGT [3]; Temperature 25, reaction-1): 18.8 | conversion rates of Phloretin (AbCGT [3]; Temperature 25, reaction-2): 21.4 | relative activity (AbCGT [3]; Temperature 25, reaction-2): 21.4 | conversion rates of Phloretin (AbCGT [3]; Temperature 25, reaction-3): 24.7 | relative activity (AbCGT [3]; Temperature 25, reaction-3): 24.7 | conversion rates of Phloretin (AbCGT [3]; Temperature 30, reaction-1): 39.8 | relative activity (AbCGT [3]; Temperature 30, reaction-1): 39.9 | conversion rates of Phloretin (AbCGT [3]; Temperature 30, reaction-2): 36.9 | relative activity (AbCGT [3]; Temperature 30, reaction-2): 37.0 | conversion rates of Phloretin (AbCGT [3]; Temperature 30, reaction-3): 38.5 | relative activity (AbCGT [3]; Temperature 30, reaction-3): 38.6 | conversion rates of Phloretin (AbCGT [3]; Temperature 35, reaction-1): 64.8 | relative activity (AbCGT [3]; Temperature 35, reaction-1): 64.9 | conversion rates of Phloretin (AbCGT [3]; Temperature 35, reaction-2): 57.8 | relative activity (AbCGT [3]; Temperature 35, reaction-2): 57.9 | conversion rates of Phloretin (AbCGT [3]; Temperature 35, reaction-3): 60.7 | relative activity (AbCGT [3]; Temperature 35, reaction-3): 60.8 | conversion rates of Phloretin (AbCGT [3]; Temperature 40, reaction-1): 78.1 | relative activity (AbCGT [3]; Temperature 40, reaction-1): 78.3 | conversion rates of Phloretin (AbCGT [3]; Temperature 40, reaction-2): 81 | relative activity (AbCGT [3]; Temperature 40, reaction-2): 81.2 | conversion rates of Phloretin (AbCGT [3]; Temperature 40, reaction-3): 73.2 | relative activity (AbCGT [3]; Temperature 40, reaction-3): 73.3 | conversion rates of Phloretin (AbCGT [3]; Temperature 45, reaction-1): 99.4 | relative activity (AbCGT [3]; Temperature 45, reaction-1): 99.6 | conversion rates of Phloretin (AbCGT [3]; Temperature 45, reaction-2): 100 | relative activity (AbCGT [3]; Temperature 45, reaction-2): 100.2 | conversion rates of Phloretin (AbCGT [3]; Temperature 45, reaction-3): 100 | relative activity (AbCGT [3]; Temperature 45, reaction-3): 100.2 | conversion rates of Phloretin (AbCGT [3]; Temperature 50, reaction-1): 97.7 | relative activity (AbCGT [3]; Temperature 50, reaction-1): 97.9 | conversion rates of Phloretin (AbCGT [3]; Temperature 50, reaction-2): 98 | relative activity (AbCGT [3]; Temperature 50, reaction-2): 98.2 | conversion rates of Phloretin (AbCGT [3]; Temperature 50, reaction-3): 99.1 | relative activity (AbCGT [3]; Temperature 50, reaction-3): 99.3 | conversion rates of Phloretin (AbCGT [3]; Temperature 55, reaction-1): 96.5 | relative activity (AbCGT [3]; Temperature 55, reaction-1): 96.7 | conversion rates of Phloretin (AbCGT [3]; Temperature 55, reaction-2): 95.7 | relative activity (AbCGT [3]; Temperature 55, reaction-2): 95.9 | conversion rates of Phloretin (AbCGT [3]; Temperature 55, reaction-3): 93.3 | relative activity (AbCGT [3]; Temperature 55, reaction-3): 93.5 | conversion rates of Phloretin (AbCGT [3]; Temperature 60, reaction-1): 75.4 | relative activity (AbCGT [3]; Temperature 60, reaction-1): 75.6 | conversion rates of Phloretin (AbCGT [3]; Temperature 60, reaction-2): 85.7 | relative activity (AbCGT [3]; Temperature 60, reaction-2): 85.9 | conversion rates of Phloretin (AbCGT [3]; Temperature 60, reaction-3): 80 | relative activity (AbCGT [3]; Temperature 60, reaction-3): 80.2 | conversion rates of Phloretin (AbCGT [3]; [5]): 0.2 | conversion rates of Phloretin (AbCGT [3]; [6]): 0.1 | relative activity (AbCGT [3]; [6]): 0.1 | conversion rates of Phloretin (AbCGT [3]; [7]): 0.2 | relative activity (AbCGT [3]; [7]): 0.2 | conversion rates of Phloretin (AbCGT [3]; [8]): 23.7 | relative activity (AbCGT [3]; [8]): 23.8 | conversion rates of Phloretin (AbCGT [3]; [9]): 25.1 | conversion rates of Phloretin (AbCGT [3]; [10]): 25.4 | relative activity (AbCGT [3]; [10]): 25.5 | conversion rates of Phloretin (AbCGT [3]; [11]): 11.7 | relative activity (AbCGT [3]; [11]): 11.8 | conversion rates of Phloretin (AbCGT [3]; [12]): 15.2 | relative activity (AbCGT [3]; [12]): 15.3 | conversion rates of Phloretin (AbCGT [3]; [13]): 13 | relative activity (AbCGT [3]; [13]): 13.1 | conversion rates of Phloretin (AbCGT [3]; [14]): 30.8 | relative activity (AbCGT [3]; [14]): 30.9 | conversion rates of Phloretin (AbCGT [3]; [15]): 28 | relative activity (AbCGT [3]; [15]): 28.1 | conversion rates of Phloretin (AbCGT [3]; [16]): 30.7 | relative activity (AbCGT [3]; [16]): 30.8 | conversion rates of Phloretin (AbCGT [3]; [17]): 34.2 | relative activity (AbCGT [3]; [17]): 34.4 | conversion rates of Phloretin (AbCGT [3]; [18]): 33.6 | relative activity (AbCGT [3]; [18]): 33.8 | conversion rates of Phloretin (AbCGT [3]; [19]): 34.8 | relative activity (AbCGT [3]; [19]): 35.0 | conversion rates of Phloretin (AbCGT [3]; [20]): 35 | relative activity (AbCGT [3]; [20]): 35.2 | conversion rates of Phloretin (AbCGT [3]; [21]): 36.1 | relative activity (AbCGT [3]; [21]): 36.3 | conversion rates of Phloretin (AbCGT [3]; [22]): 35.4 | relative activity (AbCGT [3]; [22]): 35.6 | conversion rates of Phloretin (AbCGT [3]; [23]): 53 | relative activity (AbCGT [3]; [23]): 53.2 | conversion rates of Phloretin (AbCGT [3]; [24]): 52.2 | relative activity (AbCGT [3]; [24]): 52.4 | conversion rates of Phloretin (AbCGT [3]; [25]): 53.9 | relative activity (AbCGT [3]; [25]): 54.2 | conversion rates of Phloretin (AbCGT [3]; [26]): 45.9 | relative activity (AbCGT [3]; [26]): 46.1 | conversion rates of Phloretin (AbCGT [3]; [27]): 46.5 | relative activity (AbCGT [3]; [27]): 46.7 | conversion rates of Phloretin (AbCGT [3]; [28]): 53 | relative activity (AbCGT [3]; [28]): 53.2 | conversion rates of Phloretin (AbCGT [3]; [29]): 89.2 | relative activity (AbCGT [3]; [29]): 89.6 | conversion rates of Phloretin (AbCGT [3]; [30]): 93 | relative activity (AbCGT [3]; [30]): 93.4 | conversion rates of Phloretin (AbCGT [3]; [31]): 92.7 | relative activity (AbCGT [3]; [31]): 93.1 | conversion rates of Phloretin (AbCGT [3]; [32]): 99.2 | relative activity (AbCGT [3]; [32]): 99.7 | conversion rates of Phloretin (AbCGT [3]; [33]): 100 | relative activity (AbCGT [3]; [33]): 100.5 | conversion rates of Phloretin (AbCGT [3]; [34]): 99.4 | relative activity (AbCGT [3]; [34]): 99.9 | conversion rates of Phloretin (AbCGT [3]; [35]): 0 | relative activity (AbCGT [3]; [35]): 0.0 | conversion rates of Phloretin (AbCGT [3]; [36]): 0 | relative activity (AbCGT [3]; [36]): 0.0 | conversion rates of Phloretin (AbCGT [3]; [37]): 0 | relative activity (AbCGT [3]; [37]): 0.0 | relative activity (AbCGT [4]; [5]): 0.2 | relative activity (AbCGT [4]; [9]): 25.2
